Results on three molecules are retold here after patent publication US20120177742A1, “NANOPARTICLE AND SURFACE-MODIFIED PARTICULATE COATINGS, COATED BALLOONS, AND METHODS THEREFORE” (MICELL TECHNOLOGIES, INC., priority 2010, published 2012).

Several values for one entry are separate records, joined by “and”; a condition that tells them apart may be missing. Equal values may be shown once. Read-outs that look alike come from different tables or passages of the source.

Data set [1] can be described thus: Sirolimus concentration in rabbit blood after inflation of two coated balloons per animal. In kind it is in vivo. On the procedure:
After a 2d balloon inflation, blood samples were taken at the given time points (0 h, 6 h, 24 h).

The next data set is described as follows: in vivo. To be noted: rabbit, iliac artery wall, other: coated balloon catheter deployed in iliac arteries.
The nature of data set [2]: Study 1 balloons left uninflated in rabbit aorta, exposed to blood flow: drug lost.
Data set [3] in a line: Rapamycin coating affinity testing: distribution between solid and liquid phases with surfactant in water (UV-Vis). In kind it is physicochemical. The note with it: for Cal. Rapa (Sediment) / Cal. Rapa (Supernate): calculated from UV-Vis absorbance; for Cal. Rapa (Sediment): in mg (unit assumed); for Cal. Rapa (Supernate): unit assumed; for total (% original) / total (% of original): percent recovery of initial rapamycin loading. An excerpt: One method of applying a positive surface charge to the coating is to add DMAB to the coating such that it is on its surface, at least. […] The coating is then sintered according to the RESS process. […] Care should be taken in certain embodiments to optimize the DMAB's application to the balloon and to handle the balloon thereafter to keep the DMAB from washing off. […] The initial mass of rapamycin is shown in the column labeled “Original rapa.” The supernatant (liquid phase) contains the material of interest as it is drug particles coated with the surfactant modifier. The values presented in the columns labeled “Cal. Rapa” are calculated from the UV-Vis absorbance spectrum of the sediment or supernatant respectively. The ratio of these two values determined the partition coefficient between the sediment and supernatant (reported in the column labeled “ratio”).
The initial mass of rapamycin is shown in the column labeled “Original rapa.” The supernatant (liquid phase) contains the material of interest as it is drug particles coated with the surfactant modifier. The values presented in the columns labeled “Cal. Rapa” are calculated from the UV-Vis absorbance spectrum of the sediment or supernatant respectively. The ratio of these two values determined the partition coefficient between the sediment and supernatant (reported in the column labeled “ratio”).

Where [4] appears, read: 1:1 Surfactant to Rapa (w/w), 10x dilution in water.
Where [5] appears, read: 1:1 Surfactant to Rapa, 10x dilution.
Setting [6] is: 1:1 Surfactant to Rapa, 10x dilution, partition between supernatant and sediment.
Where [7] appears, read: 1:10 Surfactant to Rapa, 100x dilution.
The mark [8] stands for this setting: 10:1 Surfactant to Rapa (w/w), 6x dilution in water.
Setting [9] is: 10:1 Surfactant to Rapa, 6x dilution.

Method for in vivo: The coated balloons were sterilized and then used in a rabbit animal study. The balloons were deployed at the target sites (iliac arteries) in the rabbits in the study, two balloons per animal. […] The amount of drug per tissue was determined using a LC-MS test method. Liquid chromatography-mass spectrometry (LC-MS) was used to determine the amount of drug per tissue. Prior to LC-MS, artery samples were homogenized using an Omni hand held probe (1:99 w:v in 80:20 MeOH:2 mM Ammonium Acetate in water with 0.1% Formic Acid). The density of the artery was assumed to be 1 g/mL
Balloons were inflated for a minimum of one minute. […] The estimated time the artery was exposed to blood flow was also tracked, and refers to the amount of time after the balloon was inflated.

On to `CO[C@H]1C[C@@H]2CC[C@@H](C)[C@@](O)(O2)C(=O)C(=O)N2CCCC[C@H]2C(=O)O[C@H]([C@H](C)C[C@@H]2CC[C@@H](O)[C@H](OC)C2)CC(=O)[C@H](C)/C=C(\C)[C@@H](O)[C@@H](OC)C(=O)[C@H](C)C[C@H](C)/C=C/C=C/C=C/1C` [sirolimus], for which the “Est. Total Sirolimus in Blood Normalized to Human” value in data set [1] (6 hr, based on 5 L of blood in the average human) is 0.08 ng/mL and 0.07 ng/mL and 0.06 ng/mL. In addition, the “Est. Total Sirolimus in Blood” value in data set [1] (6 hr, based on 56 mL per kg in rabbits) is 0.5 µg and 0.4 µg and 0.3 µg. In addition, the “time within which drug released from balloon and/or artery was cleared from the blood” value in data set [1] (rabbit, after balloon inflation) was at most 24 h. The concentration at 0 h in data set [1] (rabbit, blood, other: coated balloon catheters inflated in iliac arteries, rabbit blood, 0 Hr, two coated balloons per animal, single animals and Average, read-out: Post-Inflation Conc.) worked out at 8.35 ng/mL; in the data set “in vivo” it was 197000 ± 85300 ng/g. In addition, the concentration at 6 h amounted to 2.82 ng/mL in data set [1] (rabbit, blood, other: coated balloon catheters inflated in iliac arteries, rabbit blood, 6 hr, two coated balloons per animal, single animals and Average, read-out: Post-Inflation Conc.); 0.1 ng/mL in data set [1] (rabbit, whole blood, other: inflation of drug-coated balloons in iliac arteries, Est. Total Sirolimus in Blood Normalized to Human, 6 hr, based on 5 L of blood in the average human). The “Total Sirolimus per Artery” value (Denuded Arteries, rabbit iliac, 0 h, artery exposed to blood flow 5 or 10 min, single arteries and Average) is 7.36 µg and 4.62 µg and 5.75 µg and 4.46 µg and 3.92 µg and 4.27 µg. Besides, under “Study 1 balloons”, the “drug (sirolimus) transferred to artery” value is recorded as 1-5%. Moreover, for the setting “Study 1 balloons, 0 h”, the “sirolimus washed away into circulation” value came to 5.4 ± 2.3 µg. Further, the “sirolimus removed from balloons before inflation” value in data set [2] (Study 1 balloons) is reported as 65.6±1.3%. Besides, the “average percent drug (sirolimus) lost” value in data set [2] (four Study 1 balloons left uninflated two minutes in rabbit aorta, exposed to blood flow, based on batch average UV-Vis) is 65.6%.

For the molecule “Poly-L-Lysine (average or nominal MW of about 28,200 Da) [Poly Lysin 28,200]”, the Sediment wt in data set [3] (setting [4]) is recorded as 4.89 mg; in data set [3] (1:10 Surfactant to Rapa (w/w), 100x dilution in water) it was 7.4 mg; in data set [3] (setting [8]), 4.3 mg. For the same molecule, the figures for the “Cal. Rapa (Sediment)” value in data set [3] (setting [5]), in data set [3] (setting [7]) and in data set [3] (setting [9]) were 1.36, 7 and 1.2, respectively. In addition, the figures for the Cal. Rapa (Supernate) in data set [3] (setting [5]), in data set [3] (setting [7]) and in data set [3] (setting [9]) were 0.35 mg, 0.74 mg and 0.13 mg, respectively. The ratio super/sed in data set [3] (setting [6]) amounted to 0.26; in data set [3] (setting [7]), 0.11; in data set [3] (setting [9]) it was 0.11. Besides, the “total (% original)” value in data set [3] (setting [5]) amounted to 85.9%. Besides, the “total (% of original)” value in data set [3] (setting [7]) was 80.2%; in data set [3] (setting [9]), 63.0%.

In turn, “Poly-L-Lysine (average or nominal MW of about 67,000 Da) [Poly Lisine 66,700]” gave a Sediment wt in data set [3] (setting [4]) of 1.85 mg. In data set [3] (setting [5]), the “Cal. Rapa (Sediment)” value was 1.43, the Cal. Rapa (Supernate) was 0.33 mg and the “total (% original)” value is 93.6%. The ratio super/sed in data set [3] (setting [6]) is 0.23. In addition, the Sediment wt in data set [3] (setting [8]) was 2.9 mg. Moreover, in data set [3] (setting [9]), the ratio super/sed worked out at 0.10, the “Cal. Rapa (Sediment)” value was 1.2, the Cal. Rapa (Supernate) is 0.12 mg and the “total (% of original)” value is on record as 55.2%.
